Measured values published in ChEMBL document CHEMBL4400519, “Indazolylketones as new multitarget cannabinoid drugs” (Eur J Med Chem, 2019).
Calls of active or inactive are those of the source. No cut-off for these calls is given here.

Tests used:
[1] = target: T1, Acetylcholinesterase (Homo sapiens, UniProt P22303); test: Inhibition of human erythrocyte AChE using acetylthiocholine as substrate by Ellman's assay
[2] = target: T2, Cannabinoid receptor (Mus musculus) (UniProt P47746+P47936); test: Agonist activity at cannabinoid receptor in ICR mouse vas deferens assessed as inhibition of electrically induced contractions at 8.1 x 10^-6 M after 10 mins in presence of CB2 antagonist AM630 relative to control; format: protein assay
T2 sequence (P47746 whole entry, looked up): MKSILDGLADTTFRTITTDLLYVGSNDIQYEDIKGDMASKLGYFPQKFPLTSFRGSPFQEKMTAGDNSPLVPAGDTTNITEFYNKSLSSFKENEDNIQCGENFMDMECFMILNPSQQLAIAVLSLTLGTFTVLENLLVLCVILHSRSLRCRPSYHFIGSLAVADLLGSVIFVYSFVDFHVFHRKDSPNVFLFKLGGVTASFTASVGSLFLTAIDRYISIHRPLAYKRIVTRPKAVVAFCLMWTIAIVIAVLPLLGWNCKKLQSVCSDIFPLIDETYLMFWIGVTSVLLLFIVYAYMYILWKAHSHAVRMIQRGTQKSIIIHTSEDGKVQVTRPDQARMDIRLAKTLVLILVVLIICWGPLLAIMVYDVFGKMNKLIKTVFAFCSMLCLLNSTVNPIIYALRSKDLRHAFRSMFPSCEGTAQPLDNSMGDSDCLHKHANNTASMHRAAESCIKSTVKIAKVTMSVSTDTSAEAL
T2 sequence (P47936 whole entry, looked up): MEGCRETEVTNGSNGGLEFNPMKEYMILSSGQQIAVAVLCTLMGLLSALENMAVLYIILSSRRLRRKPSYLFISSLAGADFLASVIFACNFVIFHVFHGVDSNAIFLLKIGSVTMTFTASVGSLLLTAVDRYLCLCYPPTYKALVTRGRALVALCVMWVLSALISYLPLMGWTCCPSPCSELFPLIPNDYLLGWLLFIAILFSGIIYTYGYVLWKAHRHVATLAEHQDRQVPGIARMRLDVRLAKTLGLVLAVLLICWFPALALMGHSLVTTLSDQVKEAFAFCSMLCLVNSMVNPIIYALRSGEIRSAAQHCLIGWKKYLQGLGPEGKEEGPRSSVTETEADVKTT

[3] = target: T2, Cannabinoid receptor (Mus musculus); test: Agonist activity at cannabinoid receptor in ICR mouse vas deferens assessed as inhibition of electrically induced contractions at 2.7 x 10^-6 M after 10 mins relative to control; format: protein assay
[4] = target: T2, Cannabinoid receptor (Mus musculus); test: Agonist activity at cannabinoid receptor in ICR mouse vas deferens assessed as inhibition of electrically induced contractions at 1.82 x 10^-5 M after 10 mins in presence of CB2 antagonist AM630 relative to control; format: protein assay
[5] = target: T2, Cannabinoid receptor (Mus musculus); test: Agonist activity at cannabinoid receptor in ICR mouse vas deferens assessed as inhibition of electrically induced contractions at 8.1 x 10^-6 M after 10 mins relative to control; format: protein assay
[6] = target: T2, Cannabinoid receptor (Mus musculus); test: Agonist activity at cannabinoid receptor in ICR mouse vas deferens assessed as inhibition of electrically induced contractions at 3 x 10^-7 M after 10 mins in presence of CB1 antagonist AM251 relative to control; format: protein assay
[7] = target: T2, Cannabinoid receptor (Mus musculus); test: Agonist activity at cannabinoid receptor in ICR mouse vas deferens assessed as inhibition of electrically induced contractions at 10^-7 M after 10 mins in presence of CB1 antagonist AM251 relative to control; format: protein assay
[8] = target: Beta-secretase 1 (Homo sapiens) (UniProt P56817); test: Inhibition of human BACE1 at 10 uM incubated for 60 mins using rhodamine-EVNLDAEFK-quencher substrate by FRET assay
Chain of Beta-secretase 1 (Homo sapiens) (P56817 whole entry): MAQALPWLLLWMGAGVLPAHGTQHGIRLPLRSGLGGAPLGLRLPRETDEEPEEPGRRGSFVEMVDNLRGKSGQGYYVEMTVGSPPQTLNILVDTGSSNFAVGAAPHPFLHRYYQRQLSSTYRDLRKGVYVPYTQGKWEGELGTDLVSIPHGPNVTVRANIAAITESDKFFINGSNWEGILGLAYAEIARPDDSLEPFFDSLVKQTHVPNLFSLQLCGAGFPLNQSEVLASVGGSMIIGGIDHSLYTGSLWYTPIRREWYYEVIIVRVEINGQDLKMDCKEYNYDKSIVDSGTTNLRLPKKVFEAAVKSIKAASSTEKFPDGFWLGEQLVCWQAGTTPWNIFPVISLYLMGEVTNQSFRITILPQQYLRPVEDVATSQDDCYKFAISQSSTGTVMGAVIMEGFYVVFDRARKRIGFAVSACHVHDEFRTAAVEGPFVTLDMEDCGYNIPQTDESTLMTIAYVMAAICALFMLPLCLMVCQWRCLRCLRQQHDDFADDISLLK

[9] = target: T2, Cannabinoid receptor (Mus musculus); test: Agonist activity at cannabinoid receptor in ICR mouse vas deferens assessed as inhibition of electrically induced contractions at 3 x 10^-7 M after 10 mins in presence of CB2 antagonist AM630 relative to control; format: protein assay
[10] = target: T2, Cannabinoid receptor (Mus musculus); test: Agonist activity at cannabinoid receptor in ICR mouse vas deferens assessed as inhibition of electrically induced contractions at 1.82 x 10^-5 M after 10 mins relative to control; format: protein assay
[11] = target: T2, Cannabinoid receptor (Mus musculus); test: Agonist activity at cannabinoid receptor in ICR mouse vas deferens assessed as inhibition of electrically induced contractions at 9 x 10^-7 M after 10 mins relative to control; format: protein assay
[12] = target: T2, Cannabinoid receptor (Mus musculus); test: Agonist activity at cannabinoid receptor in ICR mouse vas deferens assessed as inhibition of electrically induced contractions at 3 x 10^-7 M after 10 mins relative to control; format: protein assay
[13] = target: T2, Cannabinoid receptor (Mus musculus); test: Agonist activity at cannabinoid receptor in ICR mouse vas deferens assessed as inhibition of electrically induced contractions at 10^-7 M after 10 mins in presence of CB2 antagonist AM630 relative to control; format: protein assay
[14] = target: Cholinesterase (Homo sapiens, UniProt P06276); test: Inhibition of human serum BChE using butyrylthiocholine as substrate by Ellman's assay
Chain of Cholinesterase (P06276 whole entry): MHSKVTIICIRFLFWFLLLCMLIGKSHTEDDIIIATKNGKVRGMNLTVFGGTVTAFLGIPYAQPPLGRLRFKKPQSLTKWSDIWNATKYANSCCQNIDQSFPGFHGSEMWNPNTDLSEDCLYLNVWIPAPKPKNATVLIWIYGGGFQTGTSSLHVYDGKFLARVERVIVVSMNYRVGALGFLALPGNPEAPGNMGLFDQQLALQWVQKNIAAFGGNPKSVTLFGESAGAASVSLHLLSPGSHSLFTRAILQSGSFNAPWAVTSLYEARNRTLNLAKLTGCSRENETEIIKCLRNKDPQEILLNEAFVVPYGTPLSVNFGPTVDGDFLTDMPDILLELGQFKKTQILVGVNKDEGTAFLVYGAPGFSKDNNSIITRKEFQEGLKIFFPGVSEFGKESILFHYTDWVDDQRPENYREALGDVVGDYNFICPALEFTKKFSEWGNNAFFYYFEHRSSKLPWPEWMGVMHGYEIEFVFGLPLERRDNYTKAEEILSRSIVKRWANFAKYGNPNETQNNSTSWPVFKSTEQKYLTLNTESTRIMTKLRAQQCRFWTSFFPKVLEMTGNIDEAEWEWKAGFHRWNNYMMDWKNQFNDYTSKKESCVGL

[15] = target: T2, Cannabinoid receptor (Mus musculus); test: Agonist activity at cannabinoid receptor in ICR mouse vas deferens assessed as inhibition of electrically induced contractions at 2.7 x 10^-6 M after 10 mins in presence of CB2 antagonist AM630 relative to control; format: protein assay
[16] = target: T2, Cannabinoid receptor (Mus musculus); test: Agonist activity at cannabinoid receptor in ICR mouse vas deferens assessed as inhibition of electrically induced contractions at 1.82 x 10^-5 M after 10 mins in presence of CB1 antagonist AM251 relative to control; format: protein assay
[17] = target: T2, Cannabinoid receptor (Mus musculus); test: Agonist activity at cannabinoid receptor in ICR mouse vas deferens assessed as inhibition of electrically induced contractions at 9 x 10^-7 M after 10 mins in presence of CB1 antagonist AM251 relative to control; format: protein assay
[18] = target: T2, Cannabinoid receptor (Mus musculus); test: Agonist activity at cannabinoid receptor in ICR mouse vas deferens assessed as inhibition of electrically induced contractions at 10^-7 M after 10 mins relative to control; format: protein assay
[19] = Antioxidant activity assessed as trolox equivalent of APPH-induced radical scavenging activity by ORAC-FL assay; format: functional
[20] = target: T2, Cannabinoid receptor (Mus musculus); test: Agonist activity at cannabinoid receptor in ICR mouse vas deferens assessed as inhibition of electrically induced contractions at 9 x 10^-7 M after 10 mins in presence of CB2 antagonist AM630 relative to control; format: protein assay
[21] = target: T2, Cannabinoid receptor (Mus musculus); test: Agonist activity at cannabinoid receptor in ICR mouse vas deferens assessed as inhibition of electrically induced contractions at 8.1 x 10^-6 M after 10 mins in presence of CB1 antagonist AM251 relative to control; format: protein assay
[22] = target: T2, Cannabinoid receptor (Mus musculus); test: Agonist activity at cannabinoid receptor in ICR mouse vas deferens assessed as inhibition of electrically induced contractions at 2.7 x 10^-6 M after 10 mins in presence of CB1 antagonist AM251 relative to control; format: protein assay
[23] = target: T1, Acetylcholinesterase; test: Inhibition of human erythrocyte AChE at 10 uM using acetylthiocholine as substrate by Ellman's assay

T1 sequence (P22303 whole entry): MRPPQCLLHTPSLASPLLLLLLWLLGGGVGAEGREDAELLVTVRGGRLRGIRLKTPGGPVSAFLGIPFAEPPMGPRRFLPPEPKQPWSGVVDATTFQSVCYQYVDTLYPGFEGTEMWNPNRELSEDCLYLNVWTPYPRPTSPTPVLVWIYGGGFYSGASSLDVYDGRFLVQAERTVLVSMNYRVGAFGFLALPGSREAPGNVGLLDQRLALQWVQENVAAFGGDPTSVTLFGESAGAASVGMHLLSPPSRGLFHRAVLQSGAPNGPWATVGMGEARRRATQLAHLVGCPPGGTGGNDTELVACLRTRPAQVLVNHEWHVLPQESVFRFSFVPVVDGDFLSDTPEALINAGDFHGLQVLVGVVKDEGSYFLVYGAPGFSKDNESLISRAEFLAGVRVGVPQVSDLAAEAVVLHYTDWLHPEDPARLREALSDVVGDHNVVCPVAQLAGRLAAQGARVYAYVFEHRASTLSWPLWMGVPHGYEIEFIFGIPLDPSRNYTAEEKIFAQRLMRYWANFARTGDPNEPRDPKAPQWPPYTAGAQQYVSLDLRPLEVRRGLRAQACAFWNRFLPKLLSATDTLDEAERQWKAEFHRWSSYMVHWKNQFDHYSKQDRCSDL

Compound	IC50 [1]	inhibition [2]	inhibition [3]	inhibition [4]	inhibition [5]	inhibition [6]	inhibition [7]	inhibition [8]	inhibition [9]	inhibition [10]	inhibition [11]	inhibition [12]	inhibition [13]	inhibition [15]	inhibition [16]	inhibition [17]	inhibition [18]	inhibition [20]	inhibition [21]	inhibition [22]	further results
O=C(c1ccccc1Cl)n1nc(OCCCN2CCCCC2)c2ccccc21	9.7 µM	34.3%	13%	79.8%	42.8%	-0.4%	-1.7%	12%	-7%	87.3%	8.9%	2.8%	-7.9%	9.3%	88.2%	4.7%	-2.2%	6.2%	51.5%	10.7%	IC50 [14]: 0.07 µM; Activity [19]: 0.28 equiv
O=C(c1c(F)ccc(F)c1F)n1nc(OCCN2CCCCC2)c2ccccc21	9.4 µM	32.3%	40.6%	49.1%	60.9%	-3.5%	-5.3%	14.3%	-1.7%	73.2%	20.8%	9.2%	-3.3%	12.8%	37.1%	6.7%	4.8%	4.4%	23.6%	10.4%	IC50 [14]: 9.4 µM; Activity [19]: inactive
O=C(c1ccccc1OCc1ccccc1)n1nc(OCCN2CCCC2)c2ccccc21	> 10 µM	47.2%	10.4%	76.7%	32.5%	-0.5%	-1.9%	32%	-1.6%	68.1%	7.7%	3.7%	-4%	10.3%	71.2%	1.3%	1.2%	2.7%	38.8%	5.9%	IC50 [14]: 0.39 µM; Activity [19]: inactive
O=C(c1cccc(Cl)c1Cl)n1nc(OCCN2CCCCC2)c2ccccc21	10.5 µM	60.2%	29.4%	78.2%	80.5%	-0.9%	-1.8%	18.1%	-1.3%	87.2%	15.6%	3.8%	-1.2%	8.6%	43.4%	1%	1.3%	2.4%	23.5%	3.1%	IC50 [14]: 0.6 µM; Activity [19]: inactive
O=C(c1cccc2ccccc12)n1nc(OCCN2CCCCC2)c2ccccc21	> 10 µM	73.6%	28.6%	92%	69.2%	–	-7.7%	11%	-7.9%	93.7%	8.6%	1.4%	-8.6%	15.7%	73.3%	–	-0.7%	-2.6%	27.8%	–	inhibition [23]: 37%; IC50 [14]: 0.00026 µM; Activity [19]: inactive
O=C(c1cccc2ccccc12)n1nc(OCCCN2CCCC2)c2ccccc21	> 10 µM	68.7%	11.3%	89.5%	56.1%	-8.6%	-6.7%	20%	-0.9%	87.4%	3.2%	0.5%	-2.7%	15.2%	88.4%	-7.2%	-2%	4%	57.9%	5.7%	inhibition [23]: 35%; IC50 [14]: 0.00015 µM; Activity [19]: inactive
COc1ccc(CC(=O)n2nc(OCCN3CCCC3)c3ccccc32)cc1	> 10 µM	47.9%	23.4%	78.6%	50.3%	-0.9%	-1.7%	17%	3.3%	76.9%	13.7%	7.9%	0.1%	14%	78.6%	2.4%	2.4%	6.4%	44.3%	12.2%	IC50 [14]: 9 µM; Activity [19]: inactive
COc1cc(C(=O)n2nc(OCCN3CCCC3)c3ccccc32)cc(OC)c1OC	11.6 µM	40%	26.9%	69.5%	49.7%	6%	-0.7%	6%	0.8%	78%	14.6%	7%	-1%	10.9%	74%	5.6%	3.2%	4.1%	42.4%	15%	IC50 [14]: > 10 µM; Activity [19]: inactive
Cc1c(C(=O)c2cccc3ccccc23)c2cccc3c2n1[C@H](CN1CCOCC1)CO3	–	54.8%	61.8%	68.9%	71.4%	-2.7%	-3.9%	–	2%	81.3%	54.5%	32.7%	-1.1%	33.2%	52%	2%	17.8%	22%	31.9%	11.5%	–
O=C(c1cccc(F)c1F)n1nc(OCCN2CCCC2)c2ccccc21	11 µM	21.2%	24.1%	30.1%	37.5%	-1.2%	-1.6%	14%	-2.8%	49.4%	11%	3.6%	-3.8%	13.2%	29.9%	4.9%	0.8%	3.7%	23.3%	12.5%	IC50 [14]: 11 µM; Activity [19]: inactive
Cc1c(C(=O)NN2CCCCC2)nn(-c2ccc(Cl)cc2Cl)c1-c1ccc(I)cc1	–	–	–	–	–	-2%	-7.3%	–	–	–	–	–	–	–	84.6%	12.1%	–	–	72.7%	38.4%	–
